Source: ChEMBL document CHEMBL1150180, “Studies on Cytotoxic Constituents in Pericarps of Mallotus japonicus, V. Three New Phloroglucinol Derivatives, Butyrylmallotochromanol, Isobutyrylmallotochromanol, and Mallotojaponol” (1990)
≈ marks a conversion by molar mass, not a printed value.

The compounds below were run on KB (assay: Cytotoxicity against human KB cells). Conditions: read-out: ED50 (the source's name).
Format: functional
`CCCC(=O)c1c(O)c(Cc2c(O)c(C(C)=O)c(O)c(C)c2OC)c(O)c2c1OC(C)(C)C(O)C2` (configuration not stated) [BUTYRYLMALLOTOCHROMANOL] gave an EC50 of 13.5 µg/mL (≈ 27.6 µM). In the case of `COc1c(C)c(OC(C)=O)c(C(C)=O)c(OC(C)=O)c1Cc1c(OC(C)=O)c2c(c(C(=O)C(C)C)c1OC(C)=O)OC(C)(C)C(OC(C)=O)C2` (configuration not stated), the EC50 is reported as 4.5 µg/mL (≈ 6.44 µM). For `COc1c(C)c(O)c(C(C)=O)c(O)c1Cc1c(O)c2c(c(C(C)=O)c1O)OC(C)(C)C(O)C2` (configuration not stated) [MALLOTOCHROMANOL], the EC50 was 21 µg/mL (≈ 45.6 µM). `COc1c(C)c(OC(C)=O)c(C(C)=O)c(OC(C)=O)c1Cc1c(OC(C)=O)c(CC(OC(C)=O)C(C)(C)OC(C)=O)c(OC(C)=O)c(C(C)=O)c1OC(C)=O` (configuration not stated) was tested, and the EC50 was 22.5 µg/mL (≈ 29.1 µM). With `CCCC(=O)c1c(OC(C)=O)c(Cc2c(OC)c(C)c(OC(C)=O)c(C(C)=O)c2OC(C)=O)c(OC(C)=O)c2c1OC(C)(C)C(OC(C)=O)C2` (configuration not stated) the EC50 was 2.8 µg/mL (≈ 4.01 µM). With `COc1c(C)c(O)c(C(C)=O)c(O)c1Cc1c(O)c(CC(O)C(C)(C)O)c(O)c(C(C)=O)c1O` (configuration not stated) [MALLOTOJAPONOL] the EC50 was 22 µg/mL (≈ 46 µM). `COc1c(C)c(O)c(C(C)=O)c(O)c1Cc1c(O)c2c(c(C(=O)C(C)C)c1O)OC(C)(C)C(O)C2` (configuration not stated) [ISOBUTYRYLMALLOTOCHROMANOL] gave an EC50 of 14.6 µg/mL (≈ 29.9 µM).
